# Results taken from patent US4361570A (Istituto Luso Farmaco D'Italia S.p.A., priority 1980, dated 1982).
# Like-named read-outs stand apart in the source and are kept apart here.
# Tests used:
# [1] = Mouse
# [2] = pregnant rat
# [3] = 400 mg/kg/os, rats, six months
# [4] = 920 mg/kg/i.m., dog
# [5] = system: homogenized liver and brain; details: in vitro, Warburg apparatus, French Pat. No. 6453 M; cited from earlier work
# [6] = system: blood lactic acid
# [7] = system: maximal aerobic capacity; blood lactate; test: Maximal aerobic capacity and blood lactate at work loads in trained non-athletic individuals
# [8] = system: hyperlacticacidaemia; test: Lacticacidaemia in cyrrhotic patients having hyperlacticacidaemia (double blind); details: venous 2300 mg in 250 ml, 25 cyrrhotic patients
# [9] = Rabbit, i.v.
# [10] = Rat
# [11] = system: lacticacidaemia; details: for lactate level: control animals 5.1±0.59 mM/l
# Description: The resulting lactate levels are 2.9±0.8 mM/l with modality "A" and 1.37±0.01 mM/l with modality "B", respectively.
# The control animals show a lacticacidaemia level of 5.1±0.59 mM/l.
# [12] = pregnant rabbit
# [13] = rats
# [14] = system: lacticacidaemia; details: for lacticacidaemia, basal / lacticacidaemia, after 15 minutes / lacticacidaemia, after 10 minutes / lacticacidaemia, immediately after stress: 2300 mg in 250 ml venous infusion
# Description: All the patients are being treated with insulin and are in a metabolic compensation.
# The trials are performed on double-blind conditions. Each patient is subjected to an isometric stress test at 50% of its maximum ability for one minute.
# The samples for measuring the lacticacidaemia are taken from the same arm performing the muscular stress.
# [15] = system: lacticacidaemia; details: known effect of metformin; cited from earlier work
smiles,measurement,setting,value
Cc1ncc(CO)c(CO)c1O.O=C(O)CCC(=O)C(=O)O [PAK],LD50,[1]; i.m.,2472 mg/kg
same,LD50,[1]; i.p.,1590 mg/kg
same,LD50,[1]; i.v.,496 mg/kg
same,LD50,[1]; os,5600 mg/kg
same,Activity on gestation,[2]; 46 mg/kg/i.m.,"does not cause any noxious effect in the pregnant female, on the gestation and on the embryo-fetal development"
same,Activity on gestation,[2]; oral 1300 mg/kg,"does not cause any noxious effect in the pregnant female, on the gestation and on the embryo-fetal development"
same,Chronic toxicity,[3],does not cause any collateral nor toxic effect in the various organs
same,Systemic tolerability,[4],well tolerated
same,oxygen consumption vs α-ketoglutaric acid or pyridoxine alone,[5],markedly higher
same,decrease in the formation of blood lactic acid,"[6]; 2 g/100 kg of weight/day for 15 days, 5 trotters, trot",significant decrease
same,basal lacticacidaemia after treatment,"[6]; 2 g/100 kg/day for 15 days, before treatment 6.04 mg/100 ml",3.30 mg/100 ml
same,"lacticacidaemia immediately after the stress, after treatment","[6]; 2 g/100 kg/day for 15 days, before treatment 29.41 mg/100 ml",15.94 mg/100 ml
same,effect on half time (t 1/2) of La disappearance from blood during recovery,[7]; 30 mg/kg,unaffected
same,increase of maximal aerobic capacity (VO2 max),"[7]; 30 mg/kg of body weight, p<0.005",6%
same,kinetics of the VO2 on-and-off responses,"[7]; 30 mg/kg, onset and offset of a rectangular work load",not affected
same,"ΔLab, peak blood lactate concentration vs control group","[7]; 30 mg/kg, supermaximal running work load lasting 60 seconds, p<0.05",-1.1 mmol·1^-1
same,"ΔLab, peak blood lactate concentration vs control group","[7]; 30 mg/kg, supermaximal running work load lasting 132±4 seconds, p<0.01",< 2.7 mmol·1^-1
same,further increase of hyperlacticacidaemia,[8],prevented its further increase
same,reduction of hyperlacticacidaemia vs basal values and controls,[8]; p<0.01,statistically significant (p<0.01) reduction
same,LD50,[9],1050 mg/kg
same,LD50,[10]; i.m.,2329 mg/kg
same,LD50,[10]; i.p.,1704 mg/kg
same,LD50,[10]; i.v.,588 mg/kg
same,LD50,[10]; os,4800 mg/kg
same,decrease of lacticacidaemia,"[11]; modality ""A"" and modality ""B"", with metformin",notable decrease of lacticacidaemia
same,lactate level,"[11]; modality ""A"": PAK 25 mg/h venous infusion contemporaneously with metformin (300 mg/i.d.)",2.9±0.8 mM/l
same,lactate level,"[11]; modality ""B"": PAK 25 mg/h venous infusion three hours after metformin (300 mg/i.d.)",1.37±0.01 mM/l
same,Activity on gestation,[12]; 46 mg/kg/i.m.,"does not cause any noxious effect in the pregnant female, on the gestation and on the embryo-fetal development"
same,Activity on gestation,[12]; oral 1300 mg/kg,"does not cause any noxious effect in the pregnant female, on the gestation and on the embryo-fetal development"
same,Systemic tolerability,[13]; 46 mg/kg/i.v.,well tolerated
same,Systemic tolerability,[13]; 460 mg/kg/i.m.,well tolerated
same,duration of effect,[14]; analysis of the variance,protracted in time
same,reduction of lacticacidaemia after stress,[14]; analysis of the variance,faster with PAK
same,increase of lacticacidaemia by stress with respect to physiological solution,"[14]; analysis of the variance, p<0.01",lower with respect to physiological solution
same,"lacticacidaemia, basal","[14]; sequence (a) physiological solution/PAK, physiological solution 0.88 ± 0.19",0.94 ± 0.20
same,"lacticacidaemia, after 15 minutes","[14]; sequence (a) physiological solution/PAK, physiological solution 1.54 ± 0.30",1.18 ± 0.30
same,"lacticacidaemia, after 10 minutes","[14]; sequence (a) physiological solution/PAK, physiological solution 1.73 ± 0.35",1.60 ± 0.30
same,"lacticacidaemia, immediately after stress","[14]; sequence (a) physiological solution/PAK, physiological solution 3.12 ± 0.46",2.62 ± 0.38
same,"lacticacidaemia, basal","[14]; sequence (b) PAK/physiological solution, physiological solution 0.93 ± 0.19",0.88 ± 0.16
same,"lacticacidaemia, after 15 minutes","[14]; sequence (b) PAK/physiological solution, physiological solution 1.25 ± 0.40",1.11 ± 0.29
same,"lacticacidaemia, after 10 minutes","[14]; sequence (b) PAK/physiological solution, physiological solution 1.43 ± 0.44",1.30 ± 0.33
same,"lacticacidaemia, immediately after stress","[14]; sequence (b) PAK/physiological solution, physiological solution 2.08 ± 0.49",2.03 ± 0.47
CN(C)C(=N)N=C(N)N [metformin],lacticacidosis in rat,[15],causes lacticacidosis
